Laboratory results as given in ChEMBL document CHEMBL1159220, “Additional dolabellane diterpenes from the Caribbean gorgonian octocoral Eunicea laciniata” (J Nat Prod, 1995).
In brackets after ≈: the same amount, converted by molar mass.

test system: HeLa; test: Cytotoxicity against human HeLa cells; assay type: functional, cell-based

First: CC(C)=C1CC[C@@]2(C)C(=O)/C=C(/C)CC/C=C(/C)CC[C@H]12 [EDUENONE]
Second: CC(C)=C1CC[C@@]2(C)C(=O)C[C@H](C)CC/C=C(\C)CC[C@H]12 [EDUNONE]
The IC50 of the first is 2-fold higher: 50 µg/mL (≈ 175 µM) for the first, 25 µg/mL (≈ 86.7 µM) for the second.

First: C/C1=C/C(=O)[C@]2(C)CC(=O)[C@H](C(C)C)[C@H]2CC/C(C)=C\CC1 [EDUDIONE]
Second: C=C(C)[C@@]1(O)CC[C@@]2(C)C/C=C(\C)CC/C=C(\C)CC[C@@H]21 [EDUNOL]
The IC50 of the first is higher: greater than 100 µg/mL for the first, 25 µg/mL (≈ 86.7 µM) for the second.
